Results reported in the NIST ThermoML archive (doi:10.1021/je200721d).

Test: xn = mol fraction of the nth substance listed
Conditions: Liquid, Vibrating tube method

CCCCCCCC [octane] + CCCCCC
Conditions | mass density [kg/m3]
323.08 K, 13000 kPa, x2 = 0.1654 | 685.79
323.08 K, 14000 kPa, x2 = 0.1654 | 686.73
323.08 K, 15000 kPa, x2 = 0.1654 | 687.65
323.08 K, 16000 kPa, x2 = 0.1654 | 688.56
323.08 K, 17000 kPa, x2 = 0.1654 | 689.44
323.08 K, 18000 kPa, x2 = 0.1654 | 690.32
323.08 K, 19000 kPa, x2 = 0.1654 | 691.15
323.08 K, 20000 kPa, x2 = 0.1654 | 691.98
323.08 K, 21000 kPa, x2 = 0.1654 | 692.79
323.08 K, 22000 kPa, x2 = 0.1654 | 693.57
323.08 K, 23000 kPa, x2 = 0.1654 | 694.36
323.08 K, 24000 kPa, x2 = 0.1654 | 695.11
323.08 K, 25000 kPa, x2 = 0.1654 | 695.85
323.09 K, 1000 kPa, x2 = 0.9308 | 638.41
323.09 K, 2000 kPa, x2 = 0.9308 | 639.57
323.09 K, 3000 kPa, x2 = 0.9308 | 640.76
323.09 K, 4000 kPa, x2 = 0.9308 | 641.92
323.09 K, 5000 kPa, x2 = 0.9308 | 643.1
323.09 K, 6000 kPa, x2 = 0.9308 | 644.29
323.09 K, 7000 kPa, x2 = 0.9308 | 645.46
323.09 K, 8000 kPa, x2 = 0.9308 | 646.63
323.09 K, 9000 kPa, x2 = 0.9308 | 647.79
323.09 K, 10000 kPa, x2 = 0.9308 | 648.93
323.09 K, 11000 kPa, x2 = 0.9308 | 650.05
323.09 K, 12000 kPa, x2 = 0.9308 | 651.17
323.09 K, 13000 kPa, x2 = 0.9308 | 652.26
323.09 K, 14000 kPa, x2 = 0.9308 | 653.35
323.09 K, 15000 kPa, x2 = 0.9308 | 654.41
323.09 K, 16000 kPa, x2 = 0.9308 | 655.45
323.09 K, 17000 kPa, x2 = 0.9308 | 656.47
323.09 K, 18000 kPa, x2 = 0.9308 | 657.47
323.09 K, 19000 kPa, x2 = 0.9308 | 658.44
323.09 K, 20000 kPa, x2 = 0.9308 | 659.39
323.09 K, 21000 kPa, x2 = 0.9308 | 660.32
323.09 K, 22000 kPa, x2 = 0.9308 | 661.2
323.09 K, 23000 kPa, x2 = 0.9308 | 662.07
323.09 K, 24000 kPa, x2 = 0.9308 | 662.91
323.09 K, 25000 kPa, x2 = 0.9308 | 663.72
323.1 K, 1000 kPa, x2 = 0.7995 | 646.3
323.1 K, 2000 kPa, x2 = 0.7995 | 647.41
323.1 K, 3000 kPa, x2 = 0.7995 | 648.55
323.1 K, 4000 kPa, x2 = 0.7995 | 649.72
323.1 K, 5000 kPa, x2 = 0.7995 | 650.83
323.1 K, 6000 kPa, x2 = 0.7995 | 651.95
323.1 K, 7000 kPa, x2 = 0.7995 | 653.08
323.1 K, 8000 kPa, x2 = 0.7995 | 654.18
323.1 K, 9000 kPa, x2 = 0.7995 | 655.3
323.1 K, 10000 kPa, x2 = 0.7995 | 656.41
323.1 K, 11000 kPa, x2 = 0.7995 | 657.51
323.1 K, 12000 kPa, x2 = 0.7995 | 658.59
323.1 K, 13000 kPa, x2 = 0.7995 | 659.66
323.1 K, 14000 kPa, x2 = 0.7995 | 660.72
323.1 K, 15000 kPa, x2 = 0.7995 | 661.75
323.1 K, 16000 kPa, x2 = 0.7995 | 662.76
323.1 K, 17000 kPa, x2 = 0.7995 | 663.74
323.1 K, 18000 kPa, x2 = 0.7995 | 664.69
323.1 K, 19000 kPa, x2 = 0.7995 | 665.64
323.1 K, 20000 kPa, x2 = 0.7995 | 666.56
323.1 K, 21000 kPa, x2 = 0.7995 | 667.44
323.1 K, 22000 kPa, x2 = 0.7995 | 668.32
323.1 K, 23000 kPa, x2 = 0.7995 | 669.16
323.1 K, 24000 kPa, x2 = 0.7995 | 669.96
323.1 K, 25000 kPa, x2 = 0.7995 | 670.76
332.95 K, 1000 kPa, x2 = 0.5749 | 649.41
332.95 K, 2000 kPa, x2 = 0.5749 | 650.55
332.95 K, 3000 kPa, x2 = 0.5749 | 651.69
332.95 K, 4000 kPa, x2 = 0.5749 | 652.87
332.95 K, 5000 kPa, x2 = 0.5749 | 654.06
332.95 K, 6000 kPa, x2 = 0.5749 | 655.21
332.95 K, 7000 kPa, x2 = 0.5749 | 656.35
332.95 K, 8000 kPa, x2 = 0.5749 | 657.49
332.95 K, 9000 kPa, x2 = 0.5749 | 658.63
332.95 K, 10000 kPa, x2 = 0.5749 | 659.75
332.95 K, 11000 kPa, x2 = 0.5749 | 660.86
332.95 K, 12000 kPa, x2 = 0.5749 | 661.96
332.95 K, 13000 kPa, x2 = 0.5749 | 663.04
332.95 K, 14000 kPa, x2 = 0.5749 | 664.1
332.95 K, 15000 kPa, x2 = 0.5749 | 665.14
332.95 K, 16000 kPa, x2 = 0.5749 | 666.16
332.95 K, 17000 kPa, x2 = 0.5749 | 667.18
332.95 K, 18000 kPa, x2 = 0.5749 | 668.14
332.95 K, 19000 kPa, x2 = 0.5749 | 669.09
332.95 K, 20000 kPa, x2 = 0.5749 | 670.02
332.95 K, 21000 kPa, x2 = 0.5749 | 670.93
332.95 K, 22000 kPa, x2 = 0.5749 | 671.82
332.95 K, 23000 kPa, x2 = 0.5749 | 672.7
332.95 K, 24000 kPa, x2 = 0.5749 | 673.55
332.95 K, 25000 kPa, x2 = 0.5749 | 674.35
333.01 K, 1000 kPa, x2 = 0.9308 | 629.03
333.01 K, 2000 kPa, x2 = 0.9308 | 630.32
333.01 K, 3000 kPa, x2 = 0.9308 | 631.62
333.01 K, 4000 kPa, x2 = 0.9308 | 632.91
333.01 K, 5000 kPa, x2 = 0.9308 | 634.2
333.01 K, 6000 kPa, x2 = 0.9308 | 635.48
